Assay results reported in the supplement of paper PMC12513837.
± gives the standard deviation of the averaged measurements.

Compound: CC(=O)N1CCc2c(c(N3CCCc4cc(-c5cnn(C)c5)c(C(F)F)cc43)nn2C2CCC(CN3CCN(c4ccc5c(c4)C(=O)N(C4CCC(=O)NC4=O)C5=O)CC3)CC2)C1 [CBPD-409]
Assay: AUC of viability dose-response curve (relative to vehicle, 8 doses up to 10 µM) (fraction); higher = less sensitive (more viable); extreme values may be limits of the assay
Protocol: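 PRISM multiplexed pooled barcoded cell line viability screen at the Broad Institute, 887 cancer cell lines treated with CBPD-409 (p300/CBP PROTAC degrader) at 8 concentrations in threefold dilution, top dose 10 µM. The read-out is the area under the dose-response curve of relative viability versus vehicle (n=3). AUC < 0.3 is called strongly sensitive and AUC > 0.8 resistant.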

Row | Test System | AUC of viability dose-response curve
1 | HS729_SOFT_TISSUE | 0.807 ± 0.27
2 | HS766T_PANCREAS | 0.73
3 | HS852T_SKIN | 1
4 | HS939T_SKIN | 0.815
5 | HS944T_SKIN | 1
6 | HSC1_SKIN | 1
7 | HSC2_UPPER_AERODIGESTIVE_TRACT | 0.502
8 | HSC3_UPPER_AERODIGESTIVE_TRACT | 0.936
9 | HSC5_SKIN | 0.644
10 | HSKTC_OVARY | 1
11 | HT3_CERVIX | 0.711
12 | HT29_LARGE_INTESTINE | 0.633
13 | HT55_LARGE_INTESTINE | 0.509
14 | HT115_LARGE_INTESTINE | 1
15 | HT144_SKIN | 1
16 | HT1080_SOFT_TISSUE | 1
17 | HT1197_URINARY_TRACT | 1
18 | HT1376_URINARY_TRACT | 1
19 | HTMMT_ENDOMETRIUM | 0.65
20 | HT_HAEMATOPOIETIC_AND_LYMPHOID_TISSUE | 0.672
21 | HUCCT1_BILIARY_TRACT | 0.983
22 | HUG1N_STOMACH | 1
23 | HUH1_LIVER | 0.882
24 | HUH6_LIVER | 1

Row | Test System | AUC of viability dose-response curve
25 | HUH7_LIVER | 0.796
26 | HUO9_BONE | 0.679
27 | HUPT3_PANCREAS | 0.687
28 | HUPT4_PANCREAS | 0.784
29 | HUT78_HAEMATOPOIETIC_AND_LYMPHOID_TISSUE | 1
30 | IALM_LUNG | 0.311
31 | ICC4_BILIARY_TRACT | 0.706
32 | ICC8_BILIARY_TRACT | 1
33 | ICC9_BILIARY_TRACT | 1
34 | ICC10_BILIARY_TRACT | 0.827
35 | ICC12_BILIARY_TRACT | 1
36 | ICC15_BILIARY_TRACT | 0.265
37 | ICC137_BILIARY_TRACT | 0.501
38 | IGR1_SKIN | 0.626
39 | IGR37_SKIN | 0.229
40 | IGR39_SKIN | 0.847
41 | IGROV1_OVARY | 0.956
42 | IHH4_THYROID | 0.762
43 | IM95_STOMACH | 0.57
44 | IPC298_SKIN | 0.808
45 | ISHIKAWAHERAKLIO02ER_ENDOMETRIUM | 1
46 | ISTMES1_PLEURA | 0.481
47 | ISTMES2_PLEURA | 0.579
48 | J82_URINARY_TRACT | 0.921

Row | Test System | AUC of viability dose-response curve
49 | JAR_PLACENTA | 0.238
50 | JEG3_PLACENTA | 0.307
51 | JEKO1_HAEMATOPOIETIC_AND_LYMPHOID_TISSUE | 1
52 | JHH1_LIVER | 0.282
53 | JHH4_LIVER | 0.997
54 | JHH5_LIVER | 0.614
55 | JHH7_LIVER | 0.291
56 | JHOC5_OVARY | 1
57 | JHOM1_OVARY | 0.99
58 | JHOS2_OVARY | 0.472
59 | JHUEM2_ENDOMETRIUM | 0.965
60 | JHUEM7_ENDOMETRIUM | 1
61 | JIMT1_BREAST | 1
62 | JJN3_HAEMATOPOIETIC_AND_LYMPHOID_TISSUE | 0.896
63 | JL1_PLEURA | 0.532
64 | JM1_HAEMATOPOIETIC_AND_LYMPHOID_TISSUE | 0.4
65 | JMSU1_URINARY_TRACT | 1
66 | JMURTK2_SOFT_TISSUE | 0.399
67 | JOPACA1_PANCREAS | 1
68 | JR_SOFT_TISSUE | 0.34
69 | JURKAT_HAEMATOPOIETIC_AND_LYMPHOID_TISSUE | 0.66
70 | JURLMK1_HAEMATOPOIETIC_AND_LYMPHOID_TISSUE | 0.361
71 | JVM3_HAEMATOPOIETIC_AND_LYMPHOID_TISSUE | 1
72 | K029AX_SKIN | 0.793

Row | Test System | AUC of viability dose-response curve
73 | K562_HAEMATOPOIETIC_AND_LYMPHOID_TISSUE | 1
74 | KALS1_CENTRAL_NERVOUS_SYSTEM | 1
75 | KARPAS299_HAEMATOPOIETIC_AND_LYMPHOID_TISSUE | 1
76 | KARPAS422_HAEMATOPOIETIC_AND_LYMPHOID_TISSUE | 0.752
77 | KARPAS620_HAEMATOPOIETIC_AND_LYMPHOID_TISSUE | 0.449
78 | KARPAS1718_HAEMATOPOIETIC_AND_LYMPHOID_TISSUE | 0.585
79 | KATOIII_STOMACH | 0.581
80 | KCL22_HAEMATOPOIETIC_AND_LYMPHOID_TISSUE | 0.552
81 | KD_SOFT_TISSUE | 0.299
82 | KE37_HAEMATOPOIETIC_AND_LYMPHOID_TISSUE | 0.925
83 | KE39_STOMACH | 1
84 | KE97_STOMACH | 1
85 | KELLY_AUTONOMIC_GANGLIA | 0.234 ± 0.054
86 | KHM1B_HAEMATOPOIETIC_AND_LYMPHOID_TISSUE | 0.665
87 | KKU055_BILIARY_TRACT | 0.915
88 | KKU100_BILIARY_TRACT | 0.994
89 | KKU213_BILIARY_TRACT | 0.767
90 | KLE_ENDOMETRIUM | 0.91
91 | KMBC2_URINARY_TRACT | 0.841
92 | KMCH1_BILIARY_TRACT | 0.96
93 | KMH2_HAEMATOPOIETIC_AND_LYMPHOID_TISSUE | 1
94 | KMRC1_KIDNEY | 1
95 | KMRC3_KIDNEY | 0.906
96 | KMRC20_KIDNEY | 0.738

Row | Test System | AUC of viability dose-response curve
97 | KMS11_HAEMATOPOIETIC_AND_LYMPHOID_TISSUE | 0.497
98 | KMS12BM_HAEMATOPOIETIC_AND_LYMPHOID_TISSUE | 0.28
99 | KMS18_HAEMATOPOIETIC_AND_LYMPHOID_TISSUE | 0.466
100 | KMS27_HAEMATOPOIETIC_AND_LYMPHOID_TISSUE | 0.801
101 | KMS28BM_HAEMATOPOIETIC_AND_LYMPHOID_TISSUE | 0.583
102 | KNS42_CENTRAL_NERVOUS_SYSTEM | 0.413
103 | KNS60_CENTRAL_NERVOUS_SYSTEM | 0.779
104 | KNS62_LUNG | 0.953
105 | KNS81_CENTRAL_NERVOUS_SYSTEM | 1
106 | KON_UPPER_AERODIGESTIVE_TRACT | 0.7
107 | KOPN8_HAEMATOPOIETIC_AND_LYMPHOID_TISSUE | 0.704
108 | KOSC2CL343_UPPER_AERODIGESTIVE_TRACT | 0.875
109 | KP2_PANCREAS | 0.512
110 | KP3_PANCREAS | 1
111 | KP4_PANCREAS | 0.625
112 | KS1_CENTRAL_NERVOUS_SYSTEM | 0.307
113 | KU1919_URINARY_TRACT | 0.267
114 | KURAMOCHI_OVARY | 0.967
115 | KYM1_SOFT_TISSUE | 0.446
116 | KYO1_HAEMATOPOIETIC_AND_LYMPHOID_TISSUE | 0.628
117 | KYSE30_OESOPHAGUS | 0.619
118 | KYSE70_OESOPHAGUS | 1
119 | KYSE140_OESOPHAGUS | 1
120 | KYSE150_OESOPHAGUS | 0.834

Row | Test System | AUC of viability dose-response curve
121 | KYSE180_OESOPHAGUS | 0.929
122 | KYSE270_OESOPHAGUS | 0.722
123 | KYSE410_OESOPHAGUS | 0.901
124 | KYSE450_OESOPHAGUS | 0.761
125 | KYSE510_OESOPHAGUS | 0.928
126 | KYSE520_OESOPHAGUS | 0.797
127 | L33_PANCREAS | 0.692
128 | L82_HAEMATOPOIETIC_AND_LYMPHOID_TISSUE | 0.44
129 | LAMA84_HAEMATOPOIETIC_AND_LYMPHOID_TISSUE | 0.832
130 | LC1SQSF_LUNG | 0.991
131 | LCLC103H_LUNG | 1
132 | LI7_LIVER | 1
133 | LK2_LUNG | 0.178
134 | LMSU_STOMACH | 0.672
135 | LN18_CENTRAL_NERVOUS_SYSTEM | 0.607
136 | LN229_CENTRAL_NERVOUS_SYSTEM | 1
137 | LN382_CENTRAL_NERVOUS_SYSTEM | 1
138 | LN464_CENTRAL_NERVOUS_SYSTEM | 0.404
139 | LNCAPCLONEFGC_PROSTATE | 0.249
